Values of other authors in patent US20080269311A1, “Combination of Dpp-Iv Inhibitors and Compounds Modulating 5-Ht3 and/or 5-Ht4 Receptors” (priority 2004, published 2008).

Molecular target: T1, 5-HT3 receptor subtype (Homo sapiens, UniProt P46098)
T1 sequence (P46098 24-478): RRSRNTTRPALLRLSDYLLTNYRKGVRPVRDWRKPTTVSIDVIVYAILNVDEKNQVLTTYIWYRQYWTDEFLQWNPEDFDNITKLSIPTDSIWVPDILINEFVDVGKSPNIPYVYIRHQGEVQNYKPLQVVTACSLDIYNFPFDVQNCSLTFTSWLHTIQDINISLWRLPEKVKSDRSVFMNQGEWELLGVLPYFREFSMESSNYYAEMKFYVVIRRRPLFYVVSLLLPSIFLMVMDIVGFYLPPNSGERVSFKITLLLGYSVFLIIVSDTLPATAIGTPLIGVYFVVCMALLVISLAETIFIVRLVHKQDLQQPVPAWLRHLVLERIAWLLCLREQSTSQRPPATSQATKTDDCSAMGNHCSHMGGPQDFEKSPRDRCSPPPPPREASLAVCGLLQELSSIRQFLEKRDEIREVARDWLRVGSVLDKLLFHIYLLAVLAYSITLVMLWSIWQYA

Which “binding to or stimulation of the 5-HT3 receptor subtype (selectivity)” value does the source give for `CCCCCNC(=N)NN=Cc1c[nH]c2ccc(OC)cc12` [Tegaserod, 3-(5-methoxy-1H-indol-3-yl-methylene)-N-pentylcarbazimidamide] here?
The value was “does neither bind to nor stimulate”.
